# Test results: PMC4761407 (ACS Chemical Biology, 2015)
# Target: CatSper channel complex (Homo sapiens, UniProt Q7RTX7+Q86XQ3+Q8NEC5+Q96P56)
# Assay: whole-cell patch clamp:[…] inhibits sirenin-induced ICatSper
# Assay type: cell-based
# Chain of CatSper channel complex (Q8NEC5 whole entry): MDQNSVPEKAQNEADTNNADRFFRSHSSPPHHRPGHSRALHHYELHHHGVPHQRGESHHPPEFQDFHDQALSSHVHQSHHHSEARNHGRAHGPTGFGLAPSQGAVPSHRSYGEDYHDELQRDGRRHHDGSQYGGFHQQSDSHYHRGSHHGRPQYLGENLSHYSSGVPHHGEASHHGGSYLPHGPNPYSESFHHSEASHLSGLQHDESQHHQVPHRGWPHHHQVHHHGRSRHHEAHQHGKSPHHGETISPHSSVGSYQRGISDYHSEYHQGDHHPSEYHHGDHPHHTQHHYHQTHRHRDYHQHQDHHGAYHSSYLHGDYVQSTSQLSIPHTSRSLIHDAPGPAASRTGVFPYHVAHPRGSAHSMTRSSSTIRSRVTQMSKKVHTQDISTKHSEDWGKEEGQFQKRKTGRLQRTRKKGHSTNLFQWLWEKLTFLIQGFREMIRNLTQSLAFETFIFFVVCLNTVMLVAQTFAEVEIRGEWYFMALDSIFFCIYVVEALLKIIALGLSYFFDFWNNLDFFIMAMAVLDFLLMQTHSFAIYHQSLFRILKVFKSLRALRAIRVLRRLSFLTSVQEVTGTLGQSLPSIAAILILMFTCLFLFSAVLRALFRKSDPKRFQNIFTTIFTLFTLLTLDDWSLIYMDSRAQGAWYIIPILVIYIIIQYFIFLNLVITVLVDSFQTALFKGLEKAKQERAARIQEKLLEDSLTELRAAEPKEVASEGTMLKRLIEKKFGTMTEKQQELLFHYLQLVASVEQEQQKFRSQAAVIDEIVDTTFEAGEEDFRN
# Chain of CatSper channel complex (Q96P56 whole entry): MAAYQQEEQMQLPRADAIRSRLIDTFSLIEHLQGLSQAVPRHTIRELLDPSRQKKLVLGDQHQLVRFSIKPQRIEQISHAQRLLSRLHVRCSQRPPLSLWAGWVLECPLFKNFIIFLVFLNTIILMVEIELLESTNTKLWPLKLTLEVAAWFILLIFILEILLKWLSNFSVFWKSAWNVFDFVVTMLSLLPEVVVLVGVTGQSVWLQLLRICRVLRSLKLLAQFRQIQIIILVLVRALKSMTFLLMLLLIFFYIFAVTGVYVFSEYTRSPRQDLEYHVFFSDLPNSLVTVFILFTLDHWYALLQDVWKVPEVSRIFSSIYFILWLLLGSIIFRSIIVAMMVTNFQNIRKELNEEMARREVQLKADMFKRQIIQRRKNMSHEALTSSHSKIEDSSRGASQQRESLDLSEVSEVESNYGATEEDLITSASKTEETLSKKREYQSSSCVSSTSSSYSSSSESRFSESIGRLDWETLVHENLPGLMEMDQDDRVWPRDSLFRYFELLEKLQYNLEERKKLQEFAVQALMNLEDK
# Chain of CatSper channel complex (Q7RTX7 whole entry): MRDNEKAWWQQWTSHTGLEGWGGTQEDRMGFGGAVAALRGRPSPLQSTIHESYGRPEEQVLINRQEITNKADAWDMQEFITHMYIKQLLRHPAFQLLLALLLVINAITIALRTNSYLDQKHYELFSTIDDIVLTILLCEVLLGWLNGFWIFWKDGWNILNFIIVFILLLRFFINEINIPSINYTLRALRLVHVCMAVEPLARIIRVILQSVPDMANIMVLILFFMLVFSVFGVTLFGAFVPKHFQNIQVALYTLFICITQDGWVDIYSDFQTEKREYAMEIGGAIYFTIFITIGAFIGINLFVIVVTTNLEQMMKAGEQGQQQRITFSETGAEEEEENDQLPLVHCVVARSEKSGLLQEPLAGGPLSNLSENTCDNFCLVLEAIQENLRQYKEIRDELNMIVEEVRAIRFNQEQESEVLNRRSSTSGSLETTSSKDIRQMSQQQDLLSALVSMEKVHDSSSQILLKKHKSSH
# Chain of CatSper channel complex (Q86XQ3 whole entry): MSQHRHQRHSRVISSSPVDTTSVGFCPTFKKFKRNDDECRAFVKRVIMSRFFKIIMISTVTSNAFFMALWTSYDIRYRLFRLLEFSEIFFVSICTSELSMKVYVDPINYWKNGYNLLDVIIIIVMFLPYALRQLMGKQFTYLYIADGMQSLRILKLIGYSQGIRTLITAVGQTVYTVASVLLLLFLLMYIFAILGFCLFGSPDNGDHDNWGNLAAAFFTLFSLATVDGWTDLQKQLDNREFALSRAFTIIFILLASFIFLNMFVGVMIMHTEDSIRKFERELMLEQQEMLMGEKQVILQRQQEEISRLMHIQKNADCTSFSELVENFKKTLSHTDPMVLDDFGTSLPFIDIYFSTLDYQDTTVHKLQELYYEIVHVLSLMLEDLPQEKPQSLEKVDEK
structure (smiles),measurement,value
COCC(=O)O[C@]1(CCN(C)CCCc2nc3ccccc3[nH]2)CCc2cc(F)ccc2[C@@H]1C(C)C [mibefradil],whole-cell patch clamp: 30 μM inhibits sirenin-induced ICatSper; FLIPR: 55% redu,30 µM
